Laboratory results: ChEMBL document CHEMBL1201862, “PubChem BioAssay data set” (2004)
Activity calls are given as the source filed them.

Key:
[1] = target: T1, 1-phosphatidylinositol 4,5-bisphosphate phosphodiesterase beta-3 (Homo sapiens, UniProt Q01970); assay: Fluorescence-based biochemical high throughput dose response assay to identify inhibitors of phospholipase C isozymes (PLC-B3).
T1 sequence (Q01970 whole entry): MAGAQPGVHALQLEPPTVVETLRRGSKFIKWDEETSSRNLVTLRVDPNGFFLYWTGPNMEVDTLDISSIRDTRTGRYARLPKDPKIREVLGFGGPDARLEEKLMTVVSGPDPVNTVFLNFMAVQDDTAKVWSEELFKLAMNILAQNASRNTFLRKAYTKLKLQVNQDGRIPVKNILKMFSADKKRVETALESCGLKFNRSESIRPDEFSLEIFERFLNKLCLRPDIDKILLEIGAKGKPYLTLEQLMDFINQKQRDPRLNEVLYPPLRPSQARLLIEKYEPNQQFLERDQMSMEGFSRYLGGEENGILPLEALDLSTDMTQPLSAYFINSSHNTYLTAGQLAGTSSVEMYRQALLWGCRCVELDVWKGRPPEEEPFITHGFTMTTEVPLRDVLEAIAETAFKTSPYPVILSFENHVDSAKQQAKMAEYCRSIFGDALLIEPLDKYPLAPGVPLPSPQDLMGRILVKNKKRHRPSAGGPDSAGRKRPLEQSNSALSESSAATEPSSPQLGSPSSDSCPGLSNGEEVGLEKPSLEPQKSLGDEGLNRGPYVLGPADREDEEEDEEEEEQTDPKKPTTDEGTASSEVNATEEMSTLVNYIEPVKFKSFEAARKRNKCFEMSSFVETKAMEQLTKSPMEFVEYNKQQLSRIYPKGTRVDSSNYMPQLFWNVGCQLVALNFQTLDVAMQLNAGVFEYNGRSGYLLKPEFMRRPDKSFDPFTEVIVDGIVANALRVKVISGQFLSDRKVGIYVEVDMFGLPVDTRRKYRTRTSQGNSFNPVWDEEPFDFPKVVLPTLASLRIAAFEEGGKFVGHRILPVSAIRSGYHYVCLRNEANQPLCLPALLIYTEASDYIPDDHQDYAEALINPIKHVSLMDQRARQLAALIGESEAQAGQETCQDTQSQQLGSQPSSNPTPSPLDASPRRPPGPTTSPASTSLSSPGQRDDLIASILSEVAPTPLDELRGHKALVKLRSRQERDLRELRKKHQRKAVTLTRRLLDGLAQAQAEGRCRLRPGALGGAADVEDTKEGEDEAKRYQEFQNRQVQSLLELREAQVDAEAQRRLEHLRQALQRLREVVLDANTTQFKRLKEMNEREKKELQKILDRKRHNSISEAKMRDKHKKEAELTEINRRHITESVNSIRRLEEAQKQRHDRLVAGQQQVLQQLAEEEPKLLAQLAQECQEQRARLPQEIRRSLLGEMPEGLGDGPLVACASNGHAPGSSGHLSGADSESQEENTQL

[2] = target: T2, 1-phosphatidylinositol 4,5-bisphosphate phosphodiesterase gamma-1 (Homo sapiens, UniProt P19174); assay: Counterscreen for inhibitors of phospholipase C isozymes (PLC-B3): Fluorescence-based biochemical high throughput dose response assay to identify inhibitors of phospholipase C isozymes (PLC-gamma1).
T2 sequence (P19174 whole entry): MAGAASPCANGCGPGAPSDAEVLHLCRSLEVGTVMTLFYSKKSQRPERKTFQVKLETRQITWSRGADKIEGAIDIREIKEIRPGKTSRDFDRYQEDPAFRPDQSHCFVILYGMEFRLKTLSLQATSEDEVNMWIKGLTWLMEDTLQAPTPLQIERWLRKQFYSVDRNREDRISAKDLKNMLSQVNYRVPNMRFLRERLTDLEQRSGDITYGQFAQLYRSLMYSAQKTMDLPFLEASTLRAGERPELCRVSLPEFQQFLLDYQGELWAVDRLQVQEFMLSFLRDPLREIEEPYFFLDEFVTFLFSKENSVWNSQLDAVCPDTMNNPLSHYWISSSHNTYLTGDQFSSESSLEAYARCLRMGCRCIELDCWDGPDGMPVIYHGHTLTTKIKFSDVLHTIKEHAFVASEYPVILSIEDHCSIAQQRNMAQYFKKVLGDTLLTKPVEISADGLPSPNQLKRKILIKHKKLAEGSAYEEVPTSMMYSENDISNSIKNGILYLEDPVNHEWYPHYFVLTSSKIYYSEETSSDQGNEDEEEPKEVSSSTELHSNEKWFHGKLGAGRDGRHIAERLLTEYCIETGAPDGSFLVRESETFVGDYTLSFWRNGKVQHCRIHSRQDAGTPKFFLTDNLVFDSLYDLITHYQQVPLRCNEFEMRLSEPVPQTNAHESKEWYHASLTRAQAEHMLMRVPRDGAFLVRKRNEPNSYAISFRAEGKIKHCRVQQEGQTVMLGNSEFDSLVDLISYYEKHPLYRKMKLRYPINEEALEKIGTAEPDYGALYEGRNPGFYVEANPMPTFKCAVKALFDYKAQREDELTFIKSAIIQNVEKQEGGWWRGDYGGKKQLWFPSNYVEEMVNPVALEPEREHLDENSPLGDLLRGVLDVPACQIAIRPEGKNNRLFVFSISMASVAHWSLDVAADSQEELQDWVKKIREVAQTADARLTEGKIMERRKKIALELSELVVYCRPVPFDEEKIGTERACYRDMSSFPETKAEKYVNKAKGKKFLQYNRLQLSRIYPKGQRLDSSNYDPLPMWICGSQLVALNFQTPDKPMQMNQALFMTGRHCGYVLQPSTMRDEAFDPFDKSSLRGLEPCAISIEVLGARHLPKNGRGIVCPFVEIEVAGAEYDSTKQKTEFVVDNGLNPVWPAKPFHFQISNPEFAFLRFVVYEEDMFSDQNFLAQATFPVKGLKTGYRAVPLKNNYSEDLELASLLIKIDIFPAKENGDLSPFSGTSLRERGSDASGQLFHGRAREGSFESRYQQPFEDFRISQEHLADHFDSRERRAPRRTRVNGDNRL

[3] = cytotoxicity toward NIH3T3 fibroblasts, dose response, counter-screen, cell-based, ATP luminescence, mouse fibroblasts (AID 2010); type: functional;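 further: cells exposed to compound for about 90 hours before reading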
[4] = target: T3, Replicative DNA helicase DnaB (Mycobacterium tuberculosis, UniProt P9WMR3); assay: DnaB intein splicing inhibitors, dose response, biochemical, cell-free fluorescence (AID 449749); type: functional
T3 sequence (P9WMR3 whole entry): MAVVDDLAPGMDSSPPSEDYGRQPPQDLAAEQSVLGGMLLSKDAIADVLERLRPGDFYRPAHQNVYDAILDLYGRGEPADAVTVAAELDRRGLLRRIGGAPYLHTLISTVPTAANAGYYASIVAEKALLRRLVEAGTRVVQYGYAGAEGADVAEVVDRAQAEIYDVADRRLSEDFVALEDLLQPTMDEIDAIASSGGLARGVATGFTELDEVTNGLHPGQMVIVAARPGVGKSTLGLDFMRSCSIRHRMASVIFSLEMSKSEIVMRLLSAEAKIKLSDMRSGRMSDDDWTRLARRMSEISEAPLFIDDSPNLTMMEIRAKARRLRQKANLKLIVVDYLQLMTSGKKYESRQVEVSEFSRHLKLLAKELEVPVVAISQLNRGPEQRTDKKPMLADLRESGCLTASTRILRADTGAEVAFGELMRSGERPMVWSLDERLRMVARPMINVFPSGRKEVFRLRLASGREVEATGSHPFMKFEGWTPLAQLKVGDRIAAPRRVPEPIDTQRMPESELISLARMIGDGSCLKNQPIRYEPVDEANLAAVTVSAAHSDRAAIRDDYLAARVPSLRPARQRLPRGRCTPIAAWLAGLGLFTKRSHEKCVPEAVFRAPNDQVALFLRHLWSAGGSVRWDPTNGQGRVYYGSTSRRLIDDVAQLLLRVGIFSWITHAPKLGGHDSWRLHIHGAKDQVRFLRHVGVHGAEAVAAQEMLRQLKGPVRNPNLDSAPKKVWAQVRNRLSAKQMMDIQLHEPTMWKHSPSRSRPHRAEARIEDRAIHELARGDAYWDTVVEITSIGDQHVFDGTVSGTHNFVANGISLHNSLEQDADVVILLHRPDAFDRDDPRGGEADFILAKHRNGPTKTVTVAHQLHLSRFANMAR

[5] = inhibitors of intracellular T. cruzi replication, confirmation, NIH3T3 host cells, beta-gal luminescence (AID 2044); type: functional, cell-based;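 further: intracellular parasites grown in NIH/3T3 mouse fibroblasts as host cells; luminescent beta-galactosidase reporter signal from transgenic T. cruzi replicating inside host cells; inhibitors lower the luminescence signal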
BJ [6] = assay: cytotoxicity toward BJ-TERT fibroblasts, dose response, cell-based, RAS-independent, luminescence (AID 1933); type: functional; settings: Homo sapiens
Protein RecA = target: T4, Protein RecA (Mycobacterium tuberculosis, UniProt P9WHJ3); assay: Fluorescence Cell-Free Homogeneous Dose Retest to Identify Inhibitors of RecA-Intein Splicing Activity. [Related pubchem assays (depositor defined):AID2097, AID2223, AID489010, AID492950]; type: functional
T4 sequence (P9WHJ3 whole entry): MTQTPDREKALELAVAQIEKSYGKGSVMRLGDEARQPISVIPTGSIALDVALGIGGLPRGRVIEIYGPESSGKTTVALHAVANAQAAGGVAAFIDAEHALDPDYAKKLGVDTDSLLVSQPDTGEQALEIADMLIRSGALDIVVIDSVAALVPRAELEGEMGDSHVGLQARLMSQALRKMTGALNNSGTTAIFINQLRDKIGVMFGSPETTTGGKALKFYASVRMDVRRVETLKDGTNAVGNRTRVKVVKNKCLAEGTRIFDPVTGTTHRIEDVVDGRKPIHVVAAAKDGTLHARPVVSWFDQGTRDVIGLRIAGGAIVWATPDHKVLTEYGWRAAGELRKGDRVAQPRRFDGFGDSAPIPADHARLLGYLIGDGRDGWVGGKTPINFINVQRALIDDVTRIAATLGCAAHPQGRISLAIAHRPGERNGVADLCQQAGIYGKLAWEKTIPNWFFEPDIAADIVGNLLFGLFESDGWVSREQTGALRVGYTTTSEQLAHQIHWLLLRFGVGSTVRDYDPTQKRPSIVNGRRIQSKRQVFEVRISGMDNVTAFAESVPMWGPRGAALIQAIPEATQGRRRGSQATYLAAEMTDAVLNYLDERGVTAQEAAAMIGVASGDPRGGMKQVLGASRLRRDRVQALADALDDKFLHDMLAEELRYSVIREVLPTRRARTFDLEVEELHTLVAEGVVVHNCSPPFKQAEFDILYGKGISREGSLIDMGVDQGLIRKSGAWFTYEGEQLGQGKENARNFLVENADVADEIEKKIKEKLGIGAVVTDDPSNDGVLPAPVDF

BJ [7] = assay: cells; type: functional, cell-based; settings: Homo sapiens
[8] = cytotoxicity toward DRD oncogenic fibroblasts, dose response, cell-based, non-viral oncogenic, luminescence (AID 1934); type: functional; settings: Homo sapiens
[9] = non-specific cell cytotoxicity, dose response, cytotoxicity control for PAX8 inhibitor project, plate reader, dry powder samples (AID 743021); type: functional, cell-based
Paired box protein Pax-8 = Paired box protein Pax-8 (Homo sapiens, UniProt Q06710); assay: inhibitors of PAX8-driven TPO luciferase reporter, dose response, RMG-I cells, cherry-pick (AID 687027); type: functional, cell-based;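 further: luciferase reporter driven by Pax8 target thyroperoxidase promoter measured by SteadyGlo luminescence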
Chain of Paired box protein Pax-8 (Q06710 whole entry): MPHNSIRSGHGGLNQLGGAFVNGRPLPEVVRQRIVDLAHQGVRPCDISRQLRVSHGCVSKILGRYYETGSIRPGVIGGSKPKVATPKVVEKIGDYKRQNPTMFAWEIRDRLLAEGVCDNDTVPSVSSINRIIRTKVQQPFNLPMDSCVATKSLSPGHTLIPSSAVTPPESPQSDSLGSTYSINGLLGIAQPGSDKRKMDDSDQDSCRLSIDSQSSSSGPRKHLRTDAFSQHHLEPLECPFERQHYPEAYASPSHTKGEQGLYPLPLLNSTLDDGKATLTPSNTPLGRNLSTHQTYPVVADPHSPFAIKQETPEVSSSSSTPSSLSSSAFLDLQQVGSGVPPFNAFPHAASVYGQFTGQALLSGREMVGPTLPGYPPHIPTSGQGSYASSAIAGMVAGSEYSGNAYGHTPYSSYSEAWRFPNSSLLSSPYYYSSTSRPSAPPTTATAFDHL

BJ [10] = assay: cytotoxicity toward BJ-TERT-LT-ST fibroblasts, dose response, cell-based, RAS-independent, luminescence (AID 1935); type: functional; settings: Homo sapiens;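 further: BJ fibroblasts immortalized with TERT plus LT and ST oncogenes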
Major prion protein = Major prion protein (Homo sapiens, UniProt P04156); type: functional, cell-based
Caspase-6 = target: T5, Caspase-6 (Homo sapiens, UniProt P55212); assay: human caspase-6 inhibitors, dose response, biochemical, VEID-R110 fluorescence, cherry-pick (AID 720632)
T5 sequence (P55212 whole entry): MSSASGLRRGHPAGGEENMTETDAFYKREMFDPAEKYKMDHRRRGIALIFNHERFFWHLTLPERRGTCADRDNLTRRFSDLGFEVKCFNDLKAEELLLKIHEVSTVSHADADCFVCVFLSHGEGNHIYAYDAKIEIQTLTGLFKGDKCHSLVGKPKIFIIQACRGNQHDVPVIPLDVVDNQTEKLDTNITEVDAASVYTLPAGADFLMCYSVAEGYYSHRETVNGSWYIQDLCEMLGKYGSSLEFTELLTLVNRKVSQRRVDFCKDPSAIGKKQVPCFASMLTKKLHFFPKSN

[11] = NIH:OVCAR-3 ovarian cancer cell cytotoxicity, dose response, PAX8 inhibitor project, plate reader, dry powder samples (AID 743044); type: functional, cell-based
[12] = cytotoxicity in OVCAR8 ovarian cancer cells, dose response, PAX8 project, cell-based, plate reader, dry powder samples (AID 743197); type: functional; settings: OVCAR-8
[13] = A2780 ovarian cancer cell cytotoxicity, dose response, cytotoxicity control, plate reader, dry powder samples (AID 743046); type: functional, cell-based
[14] = IGROV1 ovarian cancer cell cytotoxicity, dose response, PAX8 inhibitor project, plate reader, dry powder samples (AID 743043); type: functional, cell-based; settings: IGROV-1

## COc1ccccc1-c1cc(C(=O)Nc2ccc(F)cc2F)no1
[1]
  IC50: > 122 µM (inactive)
[2]
  IC50: > 122 µM (inactive)

## CC(C)N(CC(=O)Nc1ccc(Cl)cc1C(F)(F)F)C(=O)CCl
[3]
  EC50: 11.9 µM (active)
[4]
  AC50: < 0.018 µM (inconclusive)
[5]
  EC50: 3.38 µM (active)
BJ [6]
  EC50: 6.85 µM (inconclusive)
Protein RecA
  EC50: 6.09 µM (active)
BJ [7]
  EC50: 16.9 µM (active)
[8]
  EC50: 6.62 µM (active)
[9]
  AC50: 10 µM (active)
Paired box protein Pax-8
  AC50: 5.06 µM (active)
BJ [10]
  EC50: > 150 µM (inconclusive)

## COc1ccccc1Cn1c(=S)[nH]c2ccc(F)cc2c1=O
Major prion protein
  IC50: 0.412 µM (active)
cells
  IC50: > 138 µM (inactive)

## CO[C@H]1CN(C)C(=O)c2cc(NC(C)=O)ccc2OC[C@@H](C)N(C(=O)CC2CC2)C[C@H]1C
Caspase-6
  AC50: 12.1 µM (active)

## COc1ccc(CN(C)C[C@H]2OCCCC[C@@H](C)Oc3ccc(NC(=O)Nc4ccc(F)cc4)cc3C(=O)N([C@@H](C)CO)C[C@@H]2C)cc1
[11]
  AC50: 33.8 µM (active)
[9]
  AC50: 51.9 µM (active)
[12]
  AC50: > 70 µM (inactive)
Paired box protein Pax-8
  AC50: 21.7 µM (active)

## CC(C)(C)C(=O)NNC(=O)COc1ccc2ccccc2c1Br
Major prion protein
  IC50: 4.91 µM (active)
cells
  IC50: > 138 µM (inactive)

## C[C@@H]1CCCCO[C@H](CN(C)Cc2ccc(Cl)c(Cl)c2)[C@@H](C)CN([C@@H](C)CO)C(=O)c2cc(NC(=O)Nc3ccc(F)cc3)ccc2O1
[11]
  AC50: 51.3 µM (active)
[13]
  AC50: 63.6 µM (active)
[12]
  AC50: > 70 µM (inactive)
[14]
  AC50: 29.6 µM (active)
Paired box protein Pax-8
  AC50: 6.33 µM (active)

## O=C(CCc1ccccc1)N[C@H]1[C@@H](OC(=O)c2cnccn2)CCC[C@@]12C(=O)N(Cc1ccccc1)c1ccccc12
[1]
  IC50: > 122 µM (inactive)
[2]
  IC50: > 122 µM (inactive)
